Reference: US12157741B2, “Macrocyclic inhibitors of DYRK1A” (DANA-FARBER CANCER INSTITUTE, INC., priority 2018, dated 2024)
Like-named read-outs stand apart in the source and are kept apart here.

Key:
Format in all cases: binding
various enzymes [1] = target: various enzymes (Homo sapiens, UniProt P00519, H396P); conditions: compound 1 uM
Description: (§1) Ambit profiling was conducted in accordance with the manufacturer's instructions.

various enzymes [2] = target: various enzymes (Homo sapiens, UniProt P10721, T670I/V559D)
Description: as §1

various enzymes [3] = target: various enzymes (Homo sapiens, UniProt P00519, F317I); conditions: compound 1 uM
Description: as §1

various enzymes [4] = target: T1, various enzymes (Homo sapiens, UniProt P45985); conditions: compound 1 uM
T1 sequence (P45985 1-399): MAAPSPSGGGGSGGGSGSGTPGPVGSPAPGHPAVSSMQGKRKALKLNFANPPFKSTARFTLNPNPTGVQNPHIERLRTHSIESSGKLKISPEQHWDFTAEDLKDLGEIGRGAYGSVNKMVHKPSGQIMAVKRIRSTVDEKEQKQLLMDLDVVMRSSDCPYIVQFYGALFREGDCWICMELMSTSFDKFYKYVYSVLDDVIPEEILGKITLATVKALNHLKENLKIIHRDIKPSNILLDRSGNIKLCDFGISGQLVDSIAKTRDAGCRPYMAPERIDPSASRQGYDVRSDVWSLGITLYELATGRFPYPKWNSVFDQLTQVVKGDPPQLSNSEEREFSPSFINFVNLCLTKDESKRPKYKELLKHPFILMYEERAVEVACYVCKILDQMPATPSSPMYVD
Description: as §1

various enzymes [5] = target: various enzymes (Homo sapiens, UniProt P08581, M1250T)
Description: as §1

various enzymes [6] = target: various enzymes (Homo sapiens, UniProt P28482); conditions: compound 1 uM
Chain of various enzymes (Homo sapiens, UniProt P28482) (P28482 whole entry): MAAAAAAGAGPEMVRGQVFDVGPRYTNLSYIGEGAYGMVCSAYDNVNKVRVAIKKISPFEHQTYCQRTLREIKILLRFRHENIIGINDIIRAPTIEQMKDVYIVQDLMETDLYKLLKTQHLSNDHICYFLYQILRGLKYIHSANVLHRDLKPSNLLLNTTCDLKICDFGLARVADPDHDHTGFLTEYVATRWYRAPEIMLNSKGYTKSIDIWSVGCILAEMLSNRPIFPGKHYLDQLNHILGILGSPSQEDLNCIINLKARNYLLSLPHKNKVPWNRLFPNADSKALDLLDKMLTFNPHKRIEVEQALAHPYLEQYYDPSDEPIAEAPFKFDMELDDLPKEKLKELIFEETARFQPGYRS
Description: as §1

various enzymes [7] = target: various enzymes (Homo sapiens, UniProt P46734); conditions: compound 1 uM
Chain of various enzymes (Homo sapiens, UniProt P46734) (P46734 whole entry): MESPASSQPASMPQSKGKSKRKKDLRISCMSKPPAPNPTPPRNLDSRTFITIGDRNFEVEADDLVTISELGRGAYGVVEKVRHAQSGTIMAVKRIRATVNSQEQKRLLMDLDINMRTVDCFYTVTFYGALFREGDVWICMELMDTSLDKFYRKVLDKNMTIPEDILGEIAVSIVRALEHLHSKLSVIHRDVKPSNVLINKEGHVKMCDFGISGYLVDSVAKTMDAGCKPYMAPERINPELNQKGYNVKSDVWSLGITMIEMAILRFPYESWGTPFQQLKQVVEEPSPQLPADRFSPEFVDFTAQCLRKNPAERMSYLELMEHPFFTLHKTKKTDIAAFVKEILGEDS
Description: as §1

various enzymes [8] = target: various enzymes (Homo sapiens, UniProt Q8NI60); conditions: compound 1 uM
Chain of various enzymes (Homo sapiens, UniProt Q8NI60) (Q8NI60 163-647): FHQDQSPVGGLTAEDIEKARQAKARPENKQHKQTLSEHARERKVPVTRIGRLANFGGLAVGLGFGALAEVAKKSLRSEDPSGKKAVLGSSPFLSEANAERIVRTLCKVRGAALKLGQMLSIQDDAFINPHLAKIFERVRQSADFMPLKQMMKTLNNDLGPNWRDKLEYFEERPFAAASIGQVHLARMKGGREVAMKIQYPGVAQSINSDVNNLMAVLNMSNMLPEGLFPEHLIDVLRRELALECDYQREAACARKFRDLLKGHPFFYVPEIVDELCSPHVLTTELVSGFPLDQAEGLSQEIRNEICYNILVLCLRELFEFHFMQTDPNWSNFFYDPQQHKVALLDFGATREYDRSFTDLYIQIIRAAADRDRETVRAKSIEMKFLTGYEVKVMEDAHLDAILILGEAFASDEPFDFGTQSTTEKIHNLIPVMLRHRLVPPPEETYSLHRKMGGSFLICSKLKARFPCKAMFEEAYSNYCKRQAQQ
Description: as §1

various enzymes [9] = target: various enzymes (Homo sapiens, UniProt P22607, G697C)
Chain of various enzymes (Homo sapiens, UniProt P22607, G697C) (P22607 23-806 G697C): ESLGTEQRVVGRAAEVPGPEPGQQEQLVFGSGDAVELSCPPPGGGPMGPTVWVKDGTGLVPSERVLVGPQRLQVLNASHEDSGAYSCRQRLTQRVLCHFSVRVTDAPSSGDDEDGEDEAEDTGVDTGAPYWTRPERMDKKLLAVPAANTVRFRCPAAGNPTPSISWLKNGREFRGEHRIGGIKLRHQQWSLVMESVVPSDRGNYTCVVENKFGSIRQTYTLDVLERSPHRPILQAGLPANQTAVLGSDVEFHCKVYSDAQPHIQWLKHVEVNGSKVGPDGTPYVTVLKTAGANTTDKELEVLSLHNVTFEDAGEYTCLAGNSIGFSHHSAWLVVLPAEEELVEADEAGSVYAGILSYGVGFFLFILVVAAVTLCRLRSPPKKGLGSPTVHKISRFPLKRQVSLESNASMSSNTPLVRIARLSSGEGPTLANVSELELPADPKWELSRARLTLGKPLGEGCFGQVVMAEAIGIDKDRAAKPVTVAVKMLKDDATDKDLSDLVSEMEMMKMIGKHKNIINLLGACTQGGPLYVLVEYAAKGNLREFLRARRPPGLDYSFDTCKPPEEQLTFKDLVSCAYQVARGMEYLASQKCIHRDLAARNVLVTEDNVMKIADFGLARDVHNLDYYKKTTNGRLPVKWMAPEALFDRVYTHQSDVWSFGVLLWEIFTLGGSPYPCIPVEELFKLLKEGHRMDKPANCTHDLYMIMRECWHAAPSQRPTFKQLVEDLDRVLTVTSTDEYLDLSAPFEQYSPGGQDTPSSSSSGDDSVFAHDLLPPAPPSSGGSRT
Description: as §1

various enzymes [10] = target: various enzymes (Homo sapiens, UniProt P00519, E255K)
Description: as §1

various enzymes [11] = target: various enzymes (Homo sapiens, UniProt Q00536); conditions: compound 1 uM
Description: as §1

various enzymes [12] = target: various enzymes (Homo sapiens, UniProt O43683); conditions: compound 1 uM
Description: as §1

various enzymes [13] = target: various enzymes (Homo sapiens, UniProt Q04912); conditions: compound 1 uM
Description: as §1

various enzymes [14] = target: various enzymes (Homo sapiens, UniProt P00519, Y253F)
Description: as §1

various enzymes [15] = target: various enzymes (Homo sapiens, UniProt P37023); conditions: compound 1 uM
Description: as §1

various enzymes [16] = target: various enzymes (Homo sapiens, UniProt Q9Y2K2); conditions: compound 1 uM
Description: as §1

various enzymes [17] = target: various enzymes (Homo sapiens, UniProt P07949, V804M)
Description: as §1

various enzymes [18] = target: various enzymes (Homo sapiens, UniProt P42336, Q546K)
Description: as §1

various enzymes [19] = target: various enzymes (Homo sapiens, UniProt Q9H1R3); conditions: compound 1 uM
Description: as §1

various enzymes [20] = target: various enzymes (Homo sapiens, UniProt Q9BUB5); conditions: compound 1 uM
Description: as §1

various enzymes [21] = target: various enzymes (Homo sapiens, UniProt O14965); conditions: compound 1 uM
Chain of various enzymes (Homo sapiens, UniProt O14965) (O14965 whole entry): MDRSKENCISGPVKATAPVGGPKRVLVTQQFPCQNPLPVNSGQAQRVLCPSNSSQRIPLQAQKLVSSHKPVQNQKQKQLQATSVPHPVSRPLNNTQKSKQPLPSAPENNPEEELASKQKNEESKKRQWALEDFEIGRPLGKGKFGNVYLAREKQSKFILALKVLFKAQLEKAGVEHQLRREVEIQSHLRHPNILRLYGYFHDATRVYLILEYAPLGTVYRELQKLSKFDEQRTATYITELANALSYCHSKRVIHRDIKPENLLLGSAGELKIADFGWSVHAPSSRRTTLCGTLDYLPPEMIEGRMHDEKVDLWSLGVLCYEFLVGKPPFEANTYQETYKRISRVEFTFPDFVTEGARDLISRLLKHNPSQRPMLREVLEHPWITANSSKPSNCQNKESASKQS
Description: as §1

various enzymes [22] = target: various enzymes (Homo sapiens, UniProt Q5S007, G2019S)
Description: as §1

various enzymes [23] = target: various enzymes (Homo sapiens, UniProt P80192); conditions: compound 1 uM
Description: as §1

various enzymes [24] = target: various enzymes (Homo sapiens, UniProt P16591); conditions: compound 1 uM
Description: as §1

various enzymes [25] = target: various enzymes (Homo sapiens, UniProt O14920); conditions: compound 1 uM
Chain of various enzymes (Homo sapiens, UniProt O14920) (O14920 whole entry): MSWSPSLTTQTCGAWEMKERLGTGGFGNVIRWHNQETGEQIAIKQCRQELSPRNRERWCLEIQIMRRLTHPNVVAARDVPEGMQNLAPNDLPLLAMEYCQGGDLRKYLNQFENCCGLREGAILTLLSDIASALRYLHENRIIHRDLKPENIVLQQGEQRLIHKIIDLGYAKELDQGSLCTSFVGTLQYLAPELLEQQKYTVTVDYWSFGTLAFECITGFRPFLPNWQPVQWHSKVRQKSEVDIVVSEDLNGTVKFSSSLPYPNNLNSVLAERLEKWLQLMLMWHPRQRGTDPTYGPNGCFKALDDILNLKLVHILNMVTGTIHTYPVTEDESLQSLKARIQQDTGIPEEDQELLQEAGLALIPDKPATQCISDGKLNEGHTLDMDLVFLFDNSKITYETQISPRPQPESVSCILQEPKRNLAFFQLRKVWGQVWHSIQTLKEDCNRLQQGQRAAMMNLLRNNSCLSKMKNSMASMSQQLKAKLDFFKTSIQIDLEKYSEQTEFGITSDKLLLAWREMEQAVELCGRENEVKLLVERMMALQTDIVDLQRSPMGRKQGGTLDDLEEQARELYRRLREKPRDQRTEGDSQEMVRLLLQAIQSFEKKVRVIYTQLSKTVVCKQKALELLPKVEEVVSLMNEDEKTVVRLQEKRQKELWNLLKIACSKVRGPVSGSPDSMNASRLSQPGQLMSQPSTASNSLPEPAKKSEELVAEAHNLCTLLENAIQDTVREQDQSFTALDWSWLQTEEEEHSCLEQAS
Description: as §1

various enzymes [26] = target: various enzymes (Homo sapiens, UniProt P29376); conditions: compound 1 uM
Description: as §1

various enzymes [27] = target: various enzymes (Homo sapiens, UniProt P10721, L576P)
Description: as §1

various enzymes [28] = target: various enzymes (Homo sapiens, UniProt Q04771); conditions: compound 1 uM
Description: as §1

various enzymes [29] = target: various enzymes (Homo sapiens, UniProt Q13557); conditions: compound 1 uM
Chain of various enzymes (Homo sapiens, UniProt Q13557) (Q13557 whole entry): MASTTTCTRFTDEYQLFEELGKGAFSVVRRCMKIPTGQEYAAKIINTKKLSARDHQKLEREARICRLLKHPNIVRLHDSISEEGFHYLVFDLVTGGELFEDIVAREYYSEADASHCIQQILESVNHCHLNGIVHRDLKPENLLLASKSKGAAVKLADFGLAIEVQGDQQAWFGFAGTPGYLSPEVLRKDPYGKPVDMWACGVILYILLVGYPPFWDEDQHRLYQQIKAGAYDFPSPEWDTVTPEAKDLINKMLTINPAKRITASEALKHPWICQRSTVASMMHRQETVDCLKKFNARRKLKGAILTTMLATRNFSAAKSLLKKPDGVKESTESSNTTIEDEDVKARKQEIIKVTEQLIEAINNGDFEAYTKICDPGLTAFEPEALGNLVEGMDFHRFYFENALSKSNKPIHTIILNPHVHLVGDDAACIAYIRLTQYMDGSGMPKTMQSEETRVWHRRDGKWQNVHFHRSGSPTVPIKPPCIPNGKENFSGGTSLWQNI
Description: as §1

various enzymes [30] = target: various enzymes (Homo sapiens, UniProt Q15831); conditions: compound 1 uM
Chain of various enzymes (Homo sapiens, UniProt Q15831) (Q15831 whole entry): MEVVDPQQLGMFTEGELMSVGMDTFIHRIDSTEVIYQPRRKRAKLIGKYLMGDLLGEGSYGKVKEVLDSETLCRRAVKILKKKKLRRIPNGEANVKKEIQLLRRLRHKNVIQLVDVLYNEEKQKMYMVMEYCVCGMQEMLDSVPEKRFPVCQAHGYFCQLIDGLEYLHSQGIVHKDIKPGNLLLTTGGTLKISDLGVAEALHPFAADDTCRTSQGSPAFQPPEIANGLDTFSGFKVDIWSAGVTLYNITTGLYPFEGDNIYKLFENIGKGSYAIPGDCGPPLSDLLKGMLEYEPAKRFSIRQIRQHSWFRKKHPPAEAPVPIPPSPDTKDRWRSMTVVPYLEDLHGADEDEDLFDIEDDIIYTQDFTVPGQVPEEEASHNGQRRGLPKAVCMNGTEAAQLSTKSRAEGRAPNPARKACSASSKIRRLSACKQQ
Description: as §1

various enzymes [31] = target: various enzymes (Homo sapiens, UniProt Q9UQ88); conditions: compound 1 uM
Description: as §1

various enzymes [32] = target: various enzymes (Homo sapiens, UniProt Q13177); conditions: compound 1 uM
Description: as §1

various enzymes [33] = target: various enzymes (Homo sapiens, UniProt Q04759); conditions: compound 1 uM
Description: as §1

various enzymes [34] = target: various enzymes (Homo sapiens, UniProt Q9UPZ9); conditions: compound 1 uM
Description: as §1

various enzymes [35] = target: various enzymes (Homo sapiens, UniProt Q92918); conditions: compound 1 uM
Chain of various enzymes (Homo sapiens, UniProt Q92918) (Q92918 whole entry): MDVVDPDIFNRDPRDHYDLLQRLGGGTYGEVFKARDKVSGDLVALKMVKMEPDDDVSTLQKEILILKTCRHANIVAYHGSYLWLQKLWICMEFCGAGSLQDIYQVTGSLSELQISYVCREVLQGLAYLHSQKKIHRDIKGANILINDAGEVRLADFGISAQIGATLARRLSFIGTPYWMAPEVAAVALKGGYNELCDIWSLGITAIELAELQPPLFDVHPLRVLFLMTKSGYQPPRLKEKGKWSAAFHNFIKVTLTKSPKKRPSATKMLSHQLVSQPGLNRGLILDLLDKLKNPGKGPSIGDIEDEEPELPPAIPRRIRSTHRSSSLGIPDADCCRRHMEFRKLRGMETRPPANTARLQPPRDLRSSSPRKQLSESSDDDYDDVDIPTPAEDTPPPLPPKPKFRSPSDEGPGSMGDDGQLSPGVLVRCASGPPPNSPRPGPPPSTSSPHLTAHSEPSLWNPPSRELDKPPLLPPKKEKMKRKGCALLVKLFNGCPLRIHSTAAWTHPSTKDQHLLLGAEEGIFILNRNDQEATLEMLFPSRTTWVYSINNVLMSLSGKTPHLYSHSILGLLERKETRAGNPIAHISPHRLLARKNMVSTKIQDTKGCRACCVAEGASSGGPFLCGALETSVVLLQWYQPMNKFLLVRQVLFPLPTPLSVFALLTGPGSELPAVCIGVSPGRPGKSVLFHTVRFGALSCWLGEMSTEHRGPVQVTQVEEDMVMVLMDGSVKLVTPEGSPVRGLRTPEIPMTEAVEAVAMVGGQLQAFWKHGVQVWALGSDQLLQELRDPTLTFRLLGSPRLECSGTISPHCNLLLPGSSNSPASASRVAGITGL
Description: as §1

various enzymes [36] = target: various enzymes (Homo sapiens, UniProt P35626); conditions: compound 1 uM
Description: as §1

various enzymes [37] = target: various enzymes (Homo sapiens, UniProt P24723); conditions: compound 1 uM
Description: as §1

various enzymes [38] = target: various enzymes (Homo sapiens, UniProt Q02156); conditions: compound 1 uM
Description: as §1

Row | SMILES | Ambit profiling: ABL1(H396P)-nonphosphorylated (various enzymes [1]) | Ambit profiling: ABL1(H396P)-phosphorylated (various enzymes [1]) | Ambit profiling: ABL1(F317I)-nonphosphorylated (various enzymes [3]) | Ambit profiling: ABL1(F317I)-phosphorylated (various enzymes [3]) | Ambit profiling: MEK4 (various enzymes [4]) | Ambit profiling: ERK2 (various enzymes [6]) | Ambit profiling: MEK3 (various enzymes [7]) | Ambit profiling: ADCK3 (various enzymes [8]) | Ambit profiling: PCTK1 (various enzymes [11]) | Ambit profiling: BUB1 (various enzymes [12]) | Ambit profiling: MST1R (various enzymes [13]) | Ambit profiling: ACVRL1 (various enzymes [15]) | Ambit profiling: QSK (various enzymes [16]) | Ambit profiling: MYLK2 (various enzymes [19]) | Ambit profiling: MKNK1 (various enzymes [20]) | Ambit profiling: AURKA (various enzymes [21]) | Ambit profiling: MLK1 (various enzymes [23]) | Ambit profiling: FER (various enzymes [24]) | Ambit profiling: IKK-beta (various enzymes [25]) | Ambit profiling: LTK (various enzymes [26]) | also measured
1 | COc1c2c(nn1C)CN(C(C)C)C(=O)CCCn1cc(c(C(F)(F)F)n1)-c1c[nH]c3ncc-2cc13 [Compound 50, (Z)-5-isopropyl-35-methoxy-31-methyl-13-(trifluoromethyl)-11H,21H,31H-5-aza-2(3,5)-pyrrolo[2,3-b]pyridina-1(4,1),3(4,3)-dipyrazolacyclononaphan-6-one] | 0.2 | 3.9 | 56 | 19 | 16 | 87 | 7.1 | 73 | 66 | 35 | 42 | 67 | 73 | 39 | 83 | 15 | 28 | 10 | 87 | 8.7 | Ambit profiling: KIT(V559D, T670I) (various enzymes [2]): 10; Ambit profiling: MET(M1250T) (various enzymes [5]): 4.2; Ambit profiling: FGFR3(G697C) (various enzymes [9]): 6.4; Ambit profiling: ABL1(E255K)-phosphorylated (various enzymes [10]): 2; Ambit profiling: ABL1(Y253F)-phosphorylated (various enzymes [14]): 10; Ambit profiling: RET(V804M) (various enzymes [17]): 6; Ambit profiling: PIK3CA(Q546K) (various enzymes [18]): 86; Ambit profiling: LRRK2(G2019S) (various enzymes [22]): 27; Ambit profiling: KIT(L576P) (various enzymes [27]): 4; Ambit profiling: ACVR1 (various enzymes [28]): 14; Ambit profiling: CAMK2D (various enzymes [29]): 20; Ambit profiling: LKB1 (various enzymes [30]): 33; Ambit profiling: CDC2L2 (various enzymes [31]): 89; Ambit profiling: PAK2 (various enzymes [32]): 100; Ambit profiling: PRKCQ (various enzymes [33]): 13; Ambit profiling: ICK (various enzymes [34]): 12; Ambit profiling: HPK1 (various enzymes [35]): 0; Ambit profiling: GRK3 (various enzymes [36]): 85; Ambit profiling: PRKCH (various enzymes [37]): 85; Ambit profiling: PRKCE (various enzymes [38]): 30
2 | CC(C)N1Cc2nn(C)cc2-c2cnc3[nH]cc(c3c2)-c2cn(nc2C(F)(F)F)CCCC1=O [Compound 45, (Z)-5-isopropyl-31-methyl-13-(trifluoromethyl)-11H,21H,31H-5-aza-2(3,5)-pyrrolo[2,3-b]pyridina-1(4,1),3(4,3)-dipyrazolacyclononaphan-6-one] | 1.9 | 24 | 87 | 71 | 0.5 | 100 | 0 | 100 | 20 | 81 | 70 | 36 | 32 | 29 | 100 | 0.6 | 46 | 49 | 100 | 18 | Ambit profiling: KIT(V559D, T670I) (various enzymes [2]; compound 1 uM): 8.2; Ambit profiling: MET(M1250T) (various enzymes [5]; compound 1 uM): 4.3; Ambit profiling: FGFR3(G697C) (various enzymes [9]; compound 1 uM): 4.5; Ambit profiling: ABL1(E255K)-phosphorylated (various enzymes [10]; compound 1 uM): 7.7; Ambit profiling: ABL1(V253F)-phosphorylated (various enzymes [14]; compound 1 uM): 76; Ambit profiling: RET(V804M) (various enzymes [17]; compound 1 uM): 8.2; Ambit profiling: PIK3CA(Q546K) (various enzymes [18]; compound 1 uM): 100; Ambit profiling: LRRK2(G2019S) (various enzymes [22]; compound 1 uM): 53; Ambit profiling: KIT(L576P) (various enzymes [27]; compound 1 uM): 4.5; Ambit profiling: ACVR1 (various enzymes [28]): 18; Ambit profiling: CAMK2D (various enzymes [29]): 15; Ambit profiling: LKB1 (various enzymes [30]): 100; Ambit profiling: CDC2L2 (various enzymes [31]): 100; Ambit profiling: PAK2 (various enzymes [32]): 74; Ambit profiling: PRKCQ (various enzymes [33]): 27; Ambit profiling: ICK (various enzymes [34]): 0.95; Ambit profiling: HPK1 (various enzymes [35]): 5.9; Ambit profiling: GRK3 (various enzymes [36]): 100; Ambit profiling: PRKCH (various enzymes [37]): 100; Ambit profiling: PRKCE (various enzymes [38]): 90
